In article PMC12801676, “Guanidino compounds with native GABA(A) δ receptor selectivity: a tale of homeostatic compensation in δ-KO mice” (BMC Neuroscience, 2025):
Where “and” joins values, the source holds several entries; their conditions need not be identical. Identical values can stand only once. Like-named read-outs stand apart in the source and are kept apart here.

Columns and labels:
[1] = tested on: GABARs in WT mouse forebrain membranes; assay: [3H]muscimol displacement, WT forebrain membranes; type: binding; settings: for [3H]muscimol (5 nM) displacement: concentrations up to 0.3 mM, mouse forebrain; for IC50: 5 nM [3H]muscimol
Method: (§1) Brain (sans cerebellum) membranes from WT and δ-KO mice were prepared as described and stored frozen at -70 °C. After thawing, membranes were washed once in assay buffer (50 mM Tris-HCl, pH 7.4) and incubated for 40 min with 5 nM [^3H]muscimol in assay buffer in a total volume of 300 µl at room temperature. […] Three milliliters of Optiphase HiSafe 3 scintillation fluid (Wallac, Turku, Finland) were added to air-dried filters and GABAR bound [^3H]muscimol radioactivity determined in a Hidex 600 SL liquid scintillation counter (Hidex, Turku, Finland).

[2] = tested on: native GABARs in WT cerebellar granule cells (CGCs); assay: Whole-cell patch clamp of WT cerebellar granule cells in brain slices, cumulative concentration-response; settings: for CGC GABAR activity: concentrations up to 1 mM; for WT Imax / WT slope (Hill slope) / EC50: WT CGCs, mean ± SEM; for WT Imax: maximal evoked current at saturating agonist concentration; for EC50: read-out: WT EC50, steady-state currents at -70 mV, Hill fit
[3] = tested on: native GABARs in δ-KO cerebellar granule cells (CGCs); assay: Whole-cell patch clamp of δ-KO cerebellar granule cells in brain slices, cumulative concentration-response; type: cell-based, mouse; settings: mean ± SEM; for δ-KO Imax: maximal evoked current at saturating agonist concentration; for EC50: steady-state currents at -70 mV, Hill fit
[4] = target: GABARs in δ-KO mouse forebrain membranes; assay: [3H]muscimol displacement, δ-KO forebrain membranes; type: binding; settings: for IC50: δ-KO forebrain membranes, room temperature, mean ± SD
Method: as §1

creatine transporter = tested on: creatine transporter; parameters: method as in PMID 35837012; settings: recombinant (HEK) cell expression; ref [20]; cited from earlier work
α4β3δ receptors = target: α4β3δ receptors; parameters: method as in PMID 30565258; settings: ref [36], read-out: functional muscimol EC50; cited from earlier work
[5] = tested on: recombinantly expressed γ2-GABARs; parameters: method as in PMID 9396785; settings: ref [48], read-out: functional (EC50) muscimol responses; cited from earlier work
taurine transporter = tested on: taurine transporter; parameters: method as in PMID 512911; settings: ref [24]; read-out: Km as taurine transporter substrate; cited from earlier work
[6] = WT forebrain membranes, room temperature, mean ± SD, read-out: IC50 for [3H]muscimol displacement, WT

IC50 [1, 6] | EC50 [2] | EC50 [3] | IC50 ([4]; 5 nM [3H]muscimol) [µM] | Compound | WT Imax [2] [pA] | WT slope (Hill slope) [2] | δ-KO Imax [3] [pA] | δ-KO slope (Hill slope) [3] | also measured
– | – | – | – | N=C(N)NCCCC(=O)C(=O)O [α-K-δ-GVA, α-Keto-δ-guanidinovalerate] | – | – | – | – | [3H]muscimol (5 nM) displacement [1]: absence of [^3H]muscimol (5 nM) displacement; CGC GABAR activity [2]: absence of detectable CGC GABAR activity
3.1 ± 0.7 µM | 4.4 ± 0.9 µM | 14 ± 2 µM | 2.5 ± 0.3 | [H]/N=C(/N)NCC(=O)O [GAA, guanidinoacetate] | -60 ± 18 | 1.1 ± 0.16 | -50 ± 10 | 0.94 ± 0.1 | –
– | – | – | – | NCc1cc(=O)[nH]o1 [[^3H]muscimol, [Methylene-^3H]muscimol, reference compound] | – | – | – | – | 5 nM [3H]muscimol binding, WT ([1]; WT forebrain, specific binding normalized to protein): 265 ± 7 fmol/mg protein; reduction of [3H]muscimol binding in δ-KO forebrain compared with WT ([4]; 5 nM [3H]muscimol, forebrain): ~ 50%; 5 nM [3H]muscimol binding, δ-KO ([4]; δ-KO forebrain, specific binding normalized to protein): 140 ± 5 fmol/mg protein
3.8 µM and ~4 µM | 3.2 ± 0.6 µM | 8 µM and 8.2 µM | 3.6 ± 0.6 | [H]/N=C(\N)NCCC(=O)O [β-GPA, β-guanidinopropionate] | -45 ± 9 | 0.85 ± 0.1 | -74 ± 19 | 1.3 ± 0.2 | EC50 (creatine transporter): ~13 µM
– | – | – | – | NCCCC(=O)O [GABA, γ-aminobutyrate] | -66 ± 5 | 1.5 ± 0.3 | -65 ± 18 | 1.1 ± 0.1 | –
– | – | – | – | CN(CC(=O)O)C(=N)N [creatine] | – | – | – | – | [3H]muscimol (5 nM) displacement [1]: absence of [^3H]muscimol (5 nM) displacement; CGC GABAR activity [2]: absence of detectable CGC GABAR activity; EC50 (creatine transporter): ~35 µM
– | – | – | – | N=C(N)NCCC[C@H](N)C(=O)O [arginine] | – | – | – | – | [3H]muscimol (5 nM) displacement [1]: absence of [^3H]muscimol (5 nM) displacement; CGC GABAR activity [2]: absence of detectable CGC GABAR activity
8.5 ± 0.9 µM | ~44 µM and 44 µM | 219 ± 11 µM | 26 ± 5 | N=C(N)NCCCC(=O)O [γ-GBA, γ-guanidinobutyrate] | -75 ± 12 | 0.81 ± 0.1 | -32 ± 7 | 0.95 ± 0.1 | IC50 ([1]; δ-KO values subtracted from WT values, read-out: δ-specific (WT minus δKO) displacement IC50): 3.5 ± 1.2 µM
– | – | – | – | NCc1cc(=O)[nH]o1 [muscimol] | – | – | – | – | EC50 (α4β3δ receptors): ~0.001 µM; EC50 [5]: 1 to 10 µM
– | – | – | – | COc1ccc(-c2ccc(=N)n(CCCC(=O)O)n2)cc1 [gabazine, Gabazine, reference compound] | – | – | – | – | block of agonist-evoked CGC currents ([2]; currents evoked by GAA, β-GPA, γ-GBA, GES in WT and δ-KO CGCs): completely blocked
36 ± 7 µM | ~32 µM and 32 µM | 72 ± 10 µM | 35 ± 4 | NC(N)=NCCS(=O)(=O)O [GES, guanidinoethanesulfonate] | -35 ± 7 | 0.89 ± 0.3 | -29 ± 6 | 0.83 ± 0.2 | Km (taurine transporter): ~150 µM
